Reference: article PMC6412019, “Discovery of NV-5138, the first selective Brain mTORC1 activator” (Scientific Reports, 2019)
“Also recorded” adds a separate entry of the source.

Assays:
[1] = target: T1, Sestrin2 (Homo sapiens, UniProt P58004); assay: Cellular thermal shift assay (CETSA), intracellular Sestrin2 in HEK-293T cells; type: cell-based; conditions: 30 min, leucine-starved HEK293T cells, read-out: increase of melting temperature of intracellular Sestrin2
T1 sequence (P58004 1-480): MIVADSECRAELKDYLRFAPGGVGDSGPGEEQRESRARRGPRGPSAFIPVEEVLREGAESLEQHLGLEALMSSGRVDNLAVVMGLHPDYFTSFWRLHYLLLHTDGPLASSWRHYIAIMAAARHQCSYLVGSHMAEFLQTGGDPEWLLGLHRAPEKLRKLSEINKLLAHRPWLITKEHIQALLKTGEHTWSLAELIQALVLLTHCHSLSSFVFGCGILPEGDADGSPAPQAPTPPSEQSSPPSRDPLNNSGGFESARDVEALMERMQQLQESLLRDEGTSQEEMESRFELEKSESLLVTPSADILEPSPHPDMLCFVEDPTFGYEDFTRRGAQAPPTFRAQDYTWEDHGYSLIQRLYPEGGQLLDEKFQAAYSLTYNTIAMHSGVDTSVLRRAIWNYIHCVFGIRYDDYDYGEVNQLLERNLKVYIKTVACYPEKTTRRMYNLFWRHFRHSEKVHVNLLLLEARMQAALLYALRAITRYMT
Experimental: (§1) Expression of flag-WDR24 allows for immunoprecipitation of the Sestrin2/GATOR2 complex from amino acid-starved cells with an anti-flag antibody. […] Finally, to determine whether Sestrins and the GATOR pathway are required for NV-5138 activity, HEK-293T cells null for all three Sestrin isoforms or the GATOR1 component Nprl3 were obtained.
(§2) CETSA was performed as previously described. […] Cells were then collected, centrifuged for 3 min at 300 g at room-temperature (RT), washed with PBS, centrifuged again, and finally resuspended in 1 ml of RT PBS containing EDTA-free protease-inhibitor tablets (Roche). 100 µl of each cell suspension was heated at the noted temperature for 3 min, samples were then placed on the bench at RT for 3 min before being flash-frozen in liquid nitrogen. To lyse the cells, samples were put through two cycles of freeze-thawing followed by centrifugation at 20,000 g for 20 min at 4 °C. 80 µl of the resulting supernatant was denatured and, resolved by SDS-PAGE. Membranes were imaged using the LI-COR imaging system. Antibodies used are listed in Supplementary Information.

[2] = target: T2, Sestrin1 (Homo sapiens, UniProt Q9Y6P5); assay: Cellular thermal shift assay (CETSA), intracellular Sestrin1 in HEK-293T cells; type: cell-based; conditions: 30 min, leucine-starved HEK293T cells, read-out: increase of melting temperature of intracellular Sestrin1
T2 sequence (Q9Y6P5 67-492 limits assumed): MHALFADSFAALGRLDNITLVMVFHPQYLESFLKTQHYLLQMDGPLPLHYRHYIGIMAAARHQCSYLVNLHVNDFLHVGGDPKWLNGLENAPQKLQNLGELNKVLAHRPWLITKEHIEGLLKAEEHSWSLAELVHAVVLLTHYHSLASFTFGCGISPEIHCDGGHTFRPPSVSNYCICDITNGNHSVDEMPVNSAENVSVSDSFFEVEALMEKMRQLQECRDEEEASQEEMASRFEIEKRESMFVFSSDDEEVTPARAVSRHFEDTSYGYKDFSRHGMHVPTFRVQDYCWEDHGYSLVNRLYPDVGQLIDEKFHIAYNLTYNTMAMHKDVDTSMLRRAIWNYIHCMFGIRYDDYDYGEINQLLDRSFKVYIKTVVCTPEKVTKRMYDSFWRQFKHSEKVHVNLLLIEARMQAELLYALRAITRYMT
Experimental: as §1, §2

[3] = target: T3, BCAT1 (Homo sapiens, UniProt P54687); assay: BCAT enzymatic assay (substrate test), BCAT1; type: biochemical; conditions: NADH oxidation at 340 nm; tested up to 1.5 mM
T3 construct: purchased OriGene TP319229
T3 sequence (P54687 1-386): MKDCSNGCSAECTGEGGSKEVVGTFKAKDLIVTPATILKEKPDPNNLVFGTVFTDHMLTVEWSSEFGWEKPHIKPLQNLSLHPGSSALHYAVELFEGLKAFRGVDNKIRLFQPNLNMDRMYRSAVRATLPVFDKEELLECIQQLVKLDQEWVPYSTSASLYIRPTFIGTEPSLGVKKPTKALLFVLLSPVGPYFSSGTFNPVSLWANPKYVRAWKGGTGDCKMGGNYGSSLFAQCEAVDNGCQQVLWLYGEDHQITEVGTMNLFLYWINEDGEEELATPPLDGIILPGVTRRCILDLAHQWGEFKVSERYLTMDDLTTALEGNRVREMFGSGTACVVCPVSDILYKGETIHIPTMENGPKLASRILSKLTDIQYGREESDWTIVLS
Experimental: BCAT exists in two isoforms, mitochondrial BCAT2 which is ubiquitously expressed, and cytosolic BCAT1, which is predominantly expressed in embryonic tissues and the adult brain. To determine whether NV-5138 is a substrate for BCAT isoforms, we established an in vitro enzymatic assay using purified BCAT1 and BCAT2 and performed the assay in the forward direction as described. […] The disappearance of absorbance at 340 nm due to NADH oxidation is measured continuously over time.
The assay buffer was dispensed into a 96-well plate and brought up to 37 °C for 10 min before adding BCAT1 or BCAT2 (72 ng) in 0.1 M potassium phosphate buffer. Absorbance at 340 nm was then read every minute for 30 min at RT using an Envision plate reader. Source of each reagents used can be found in Supplementary Information.

[4] = test system: mTORC1; assay: mTORC1 activation in rat brain after oral dosing (phosphorylated S6 S240/244 immunoblot); type: in vivo; conditions: for mTORC1 activation in brain (pS6 increase): 1 h after single oral dose, NV-5138 160 mg/kg, leucine 500 mg/kg; for increase in S240/244 pS6 versus vehicle: synaptoneurosomes from pre-frontal cortex
Excerpt: Given the favorable PK properties of NV-5138, we wished to determine whether oral administration of NV-5138 could activate mTORC1 in the brain and other organs of ad libitum fed rats using the mTORC1 downstream substrate phosphorylated S6 (^S240/244pS6) as a surrogate PD parameter for the activation status of the complex.
After compound administration, animals were sacrificed by decapitation using a guillotine, immediately Specific regions of the brain were quickly microdissected, tissues collected, and flash frozen in liquid nitrogen. Peripheral tissues and all brain were homogenized using MP homogenizer in Lysis Buffer (Cell lysis buffer: 1% Triton X-100, 50 mM HEPES pH 7.4, 100 mM NaCl, 2 mM EDTA, 10 mM Beta-glycerophosphate, 10 mM Sodium pyrophosphate, and 1 protease inhibitor) at 4 °C. Synaptic proteins and mTORC1 analyses in each brain region were conducted on crude synaptoneurosome preparations as previously described. Equal amounts of total protein from each sample were denatured and, resolved by SDS-PAGE. Membranes were imaged using the LI-COR imaging system. Proteins levels are normalized to tubulin or GAPDH levels and further normalized to vehicle treated rats for each tissue. Antibodies used are listed in Supplementary Information.

[5] = 160 mg/kg PO, 1 h, synaptoneurosomes

Row | ΔTm at 300 µM [1] [°C] | ΔTm at 300 µM [2] [°C] | SMILES | transamination by BCAT1 [3] | mTORC1 activation in brain (pS6 increase) ([4]; ad libitum fed rats) | mTORC1 activation in cerebellum [4, 5] | mTORC1 activation in striatum, hippocampus, neocortex [4, 5] | time of peak mTORC1 activation in brain ([4]; single 160 mg/kg PO) | time until mTORC1 activation back to baseline/vehicle levels ([4]; single 160 mg/kg PO) [h] | increase in S240/244 pS6 versus vehicle ([4]; 1 h after 80 mg/kg PO) | increase in S240/244 pS6 versus vehicle ([4]; 1 h after 160 mg/kg PO, ad libitum fed rats)
1 | ~2 | ~2 | CC(C)C[C@H](N)C(=O)O [Leucine, L-leucine, reference compound] | transaminated by BCAT1 and BCAT2 | no activation | – | – | – | – | – | –
2 | ~2 | ~2 | CC(C)(C[C@H](N)C(=O)O)C(F)F [NV-5138, (S)-2-amino-5,5-difluoro-4,4-dimethylpentanoic acid] | no decrease in absorption at 340 nm; also recorded: did not observe any transamination | ~ 2 fold | but not the cerebellum | significant activation | ~ 3 h | ≤ 7 | trending increase | ~ 2 fold
